Measured values taken from article PMC5392334, “Discovery and characterization of a novel irreversible EGFR mutants selective and potent kinase inhibitor CHMFL-EGFR-26 with a distinct binding mode” (Oncotarget, 2017).
Read-outs that look alike come from different tables or passages of the source.

Key:
[1] = target: T1, FLT3(D835V) (Homo sapiens, UniProt P36888, D835V); experiment: KinomeScan; type: binding; conditions: read-out: % control
T1 construct: purchased DiscoveRx KINOMEscan

[2] = target: T2, ERBB3 (Homo sapiens, UniProt P21860); experiment: KinomeScan; type: binding; conditions: read-out: % control
T2 construct: purchased DiscoveRx KINOMEscan

[3] = target: T3, BMPR1A (Homo sapiens, UniProt P36894); experiment: KinomeScan; type: binding; conditions: read-out: % control
T3 construct: purchased DiscoveRx KINOMEscan

[4] = target: T4, FER (Homo sapiens, UniProt P16591); experiment: KinomeScan; type: binding; conditions: read-out: % control
T4 construct: purchased DiscoveRx KINOMEscan

[5] = target: T5, DCAMKL3 (Homo sapiens, UniProt Q9C098); experiment: KinomeScan; type: binding; conditions: read-out: % control
T5 construct: purchased DiscoveRx KINOMEscan

[6] = tested on: BaF3-FL-EGFR-L858R-T790M-C797S; experiment: Anti-proliferation, BaF3 isogenic cell lines (CellTiter-Glo); type: cell-based; conditions: Mus musculus, 72 hours, triplet testing
[7] = target: T6, IKK-alpha (Homo sapiens, UniProt O15111); experiment: KinomeScan; type: binding; conditions: read-out: % control
T6 construct: purchased DiscoveRx KINOMEscan

[8] = target: T7, PIP5K2B (Homo sapiens, UniProt P78356); experiment: KinomeScan; type: binding; conditions: read-out: % control
T7 construct: purchased DiscoveRx KINOMEscan

[9] = target: T8, MARK4 (Homo sapiens, UniProt Q96L34); experiment: KinomeScan; type: binding; conditions: read-out: % control
T8 construct: purchased DiscoveRx KINOMEscan

[10] = target: T9, BRAF (Homo sapiens, UniProt P15056); experiment: KinomeScan; type: binding; conditions: read-out: % control
T9 construct: purchased DiscoveRx KINOMEscan

[11] = target: T10, NLK (Homo sapiens, UniProt Q9UBE8); experiment: KinomeScan; type: binding; conditions: read-out: % control
T10 construct: purchased DiscoveRx KINOMEscan

[12] = target: T11, RSK4(Kin.Dom.1-N-terminal) (Homo sapiens, UniProt Q9UK32); experiment: KinomeScan; type: binding; conditions: read-out: % control
T11 construct: RSK4(Kin.Dom.1-N-terminal); purchased DiscoveRx KINOMEscan

[13] = target: T12, HIPK4 (Homo sapiens, UniProt Q8NE63); experiment: KinomeScan; type: binding; conditions: read-out: % control
T12 construct: purchased DiscoveRx KINOMEscan

[14] = target: T13, SGK (Homo sapiens, UniProt O00141); experiment: KinomeScan; type: binding; conditions: read-out: % control
T13 construct: purchased DiscoveRx KINOMEscan
T13 sequence (O00141 whole entry): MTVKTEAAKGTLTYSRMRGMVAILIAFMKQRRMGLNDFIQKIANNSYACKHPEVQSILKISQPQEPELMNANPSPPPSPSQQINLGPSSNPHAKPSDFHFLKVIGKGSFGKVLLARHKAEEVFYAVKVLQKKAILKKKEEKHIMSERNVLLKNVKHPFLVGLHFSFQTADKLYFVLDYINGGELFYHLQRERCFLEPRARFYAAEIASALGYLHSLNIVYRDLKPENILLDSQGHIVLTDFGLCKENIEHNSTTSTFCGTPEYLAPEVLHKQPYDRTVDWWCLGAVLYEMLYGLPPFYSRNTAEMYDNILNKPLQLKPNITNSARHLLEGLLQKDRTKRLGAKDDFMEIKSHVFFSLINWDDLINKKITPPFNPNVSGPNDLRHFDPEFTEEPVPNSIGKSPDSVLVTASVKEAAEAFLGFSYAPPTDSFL

[15] = target: T14, DYRK2 (Homo sapiens, UniProt Q92630); experiment: KinomeScan; type: binding; conditions: read-out: % control
T14 construct: purchased DiscoveRx KINOMEscan

[16] = target: T15, KIT(D816V) (Homo sapiens, UniProt P10721, D816V); experiment: KinomeScan; type: binding; conditions: read-out: % control
T15 construct: purchased DiscoveRx KINOMEscan

[17] = Pharmacokinetic properties in rats; type: in vivo; conditions: for MRT last: read-out: MRT(0-t)
Experimental: To further investigate the effect of CHMFL-EGFR-26 in vivo, we first examined its pharmacokinetic properties in rats (Supplementary Table 5). The half-life is 0.8 hour by oral dosing which is short but considering the irreversible binding mode, this short half-life was preferred. […]

[18] = target: T16, PIM3 (Homo sapiens, UniProt Q86V86); experiment: KinomeScan; type: binding; conditions: read-out: % control
T16 construct: purchased DiscoveRx KINOMEscan

[19] = target: T17, ADCK4 (Homo sapiens, UniProt Q96D53); experiment: KinomeScan; type: binding; conditions: read-out: % control
T17 construct: purchased DiscoveRx KINOMEscan
T17 sequence (Q96D53 whole entry): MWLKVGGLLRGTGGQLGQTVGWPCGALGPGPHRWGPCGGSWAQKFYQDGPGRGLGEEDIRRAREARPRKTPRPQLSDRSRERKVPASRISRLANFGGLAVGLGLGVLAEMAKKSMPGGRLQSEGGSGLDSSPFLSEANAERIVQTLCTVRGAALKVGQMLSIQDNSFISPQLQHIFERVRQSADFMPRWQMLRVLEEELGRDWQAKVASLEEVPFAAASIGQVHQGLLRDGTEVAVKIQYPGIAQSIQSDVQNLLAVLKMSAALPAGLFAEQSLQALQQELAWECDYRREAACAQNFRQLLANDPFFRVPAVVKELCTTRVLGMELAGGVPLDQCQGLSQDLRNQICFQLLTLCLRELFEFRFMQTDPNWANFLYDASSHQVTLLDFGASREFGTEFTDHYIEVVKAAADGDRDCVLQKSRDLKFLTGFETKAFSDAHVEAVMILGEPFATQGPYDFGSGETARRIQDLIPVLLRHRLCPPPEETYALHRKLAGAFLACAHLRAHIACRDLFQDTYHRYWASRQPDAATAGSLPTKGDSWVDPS

[20] = target: T18, STK36 (Homo sapiens, UniProt Q9NRP7); experiment: KinomeScan; type: binding; conditions: read-out: % control
T18 construct: purchased DiscoveRx KINOMEscan
T18 sequence (Q9NRP7 whole entry): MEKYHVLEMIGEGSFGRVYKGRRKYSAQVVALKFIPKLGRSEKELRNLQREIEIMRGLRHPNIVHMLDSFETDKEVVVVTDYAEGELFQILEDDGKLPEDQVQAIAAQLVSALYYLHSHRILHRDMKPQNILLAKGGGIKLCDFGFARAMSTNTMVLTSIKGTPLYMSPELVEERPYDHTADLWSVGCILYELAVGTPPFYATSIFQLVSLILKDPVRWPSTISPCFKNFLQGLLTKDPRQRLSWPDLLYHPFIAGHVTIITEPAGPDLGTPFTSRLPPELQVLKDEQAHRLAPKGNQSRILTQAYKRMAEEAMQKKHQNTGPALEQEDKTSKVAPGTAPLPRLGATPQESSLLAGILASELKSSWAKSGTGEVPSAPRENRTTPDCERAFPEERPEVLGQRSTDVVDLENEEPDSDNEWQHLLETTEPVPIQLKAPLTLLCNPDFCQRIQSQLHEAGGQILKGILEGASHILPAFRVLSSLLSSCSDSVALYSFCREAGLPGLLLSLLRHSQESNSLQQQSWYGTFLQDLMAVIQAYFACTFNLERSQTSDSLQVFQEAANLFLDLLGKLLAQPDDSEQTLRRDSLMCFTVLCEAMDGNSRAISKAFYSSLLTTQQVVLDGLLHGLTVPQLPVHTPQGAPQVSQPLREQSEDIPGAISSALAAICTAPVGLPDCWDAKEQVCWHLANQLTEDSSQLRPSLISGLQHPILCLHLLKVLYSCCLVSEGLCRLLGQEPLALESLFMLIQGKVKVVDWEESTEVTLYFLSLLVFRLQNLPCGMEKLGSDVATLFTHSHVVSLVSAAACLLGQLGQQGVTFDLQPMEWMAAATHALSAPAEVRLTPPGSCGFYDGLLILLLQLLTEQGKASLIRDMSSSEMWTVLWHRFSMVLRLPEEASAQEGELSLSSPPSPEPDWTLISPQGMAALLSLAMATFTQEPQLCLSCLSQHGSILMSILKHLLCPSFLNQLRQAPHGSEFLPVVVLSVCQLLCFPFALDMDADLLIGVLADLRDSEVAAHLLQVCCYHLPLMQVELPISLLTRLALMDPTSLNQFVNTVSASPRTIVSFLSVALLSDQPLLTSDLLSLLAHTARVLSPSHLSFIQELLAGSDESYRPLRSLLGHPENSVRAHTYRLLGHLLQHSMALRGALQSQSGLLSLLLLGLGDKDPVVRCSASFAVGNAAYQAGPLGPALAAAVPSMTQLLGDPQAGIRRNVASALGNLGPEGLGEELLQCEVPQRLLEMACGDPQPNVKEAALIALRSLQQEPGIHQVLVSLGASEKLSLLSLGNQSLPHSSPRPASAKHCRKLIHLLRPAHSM

[21] = target: T19, TBK1 (Homo sapiens, UniProt Q9UHD2); experiment: KinomeScan; type: binding; conditions: read-out: % control
T19 construct: purchased DiscoveRx KINOMEscan

[22] = target: T20, ULK1 (Homo sapiens, UniProt O75385); experiment: KinomeScan; type: binding; conditions: read-out: % control
T20 construct: purchased DiscoveRx KINOMEscan

[23] = target: T21, DAPK3 (Homo sapiens, UniProt O43293); experiment: KinomeScan; type: binding; conditions: read-out: % control
T21 construct: purchased DiscoveRx KINOMEscan

[24] = target: T22, EIF2AK1 (Homo sapiens, UniProt Q9BQI3); experiment: KinomeScan; type: binding; conditions: read-out: % control
T22 construct: purchased DiscoveRx KINOMEscan

[25] = tested on: BaF3-TEL-EGFR-L858R-C797S; experiment: Anti-proliferation, BaF3 isogenic cell lines (CellTiter-Glo); type: cell-based; conditions: Mus musculus, 72 hours, triplet testing
[26] = target: T23, ACVR2B (Homo sapiens, UniProt Q13705); experiment: KinomeScan; type: binding; conditions: read-out: % control
T23 construct: purchased DiscoveRx KINOMEscan

[27] = tested on: BaF3-FL-EGFR-del19-T790M; experiment: Anti-proliferation, BaF3 isogenic cell lines (CellTiter-Glo); type: cell-based; conditions: Mus musculus, 72 hours, triplet testing
[28] = target: T24, FYN (Homo sapiens, UniProt P06241); experiment: KinomeScan; type: binding; conditions: read-out: % control
T24 construct: purchased DiscoveRx KINOMEscan
T24 sequence (P06241 whole entry): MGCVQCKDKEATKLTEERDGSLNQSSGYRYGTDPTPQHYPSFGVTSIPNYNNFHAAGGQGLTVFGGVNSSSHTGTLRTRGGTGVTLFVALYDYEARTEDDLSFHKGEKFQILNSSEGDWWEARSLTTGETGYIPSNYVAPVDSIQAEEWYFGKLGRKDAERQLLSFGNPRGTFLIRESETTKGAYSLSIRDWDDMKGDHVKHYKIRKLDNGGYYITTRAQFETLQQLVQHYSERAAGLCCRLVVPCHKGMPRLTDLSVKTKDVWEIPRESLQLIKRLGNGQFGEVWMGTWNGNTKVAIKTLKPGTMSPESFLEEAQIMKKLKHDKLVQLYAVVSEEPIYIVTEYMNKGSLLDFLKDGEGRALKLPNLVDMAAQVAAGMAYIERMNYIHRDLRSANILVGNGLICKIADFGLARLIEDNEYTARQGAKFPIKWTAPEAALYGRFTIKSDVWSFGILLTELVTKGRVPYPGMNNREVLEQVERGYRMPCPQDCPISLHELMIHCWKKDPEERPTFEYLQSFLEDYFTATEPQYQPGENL

[29] = target: T25, ERBB2 (Homo sapiens, UniProt P04626); experiment: KinomeScan; type: binding; conditions: read-out: % control
T25 construct: purchased DiscoveRx KINOMEscan

[30] = target: T26, CDK4-cyclinD1 (Homo sapiens, UniProt P11802); experiment: KinomeScan; type: binding; conditions: read-out: % control
T26 construct: purchased DiscoveRx KINOMEscan

[31] = target: T27, WNK2 (Homo sapiens, UniProt Q9Y3S1); experiment: KinomeScan; type: binding; conditions: read-out: % control
T27 construct: purchased DiscoveRx KINOMEscan

[32] = target: T28, CDC2L2 (Homo sapiens, UniProt Q9UQ88); experiment: KinomeScan; type: binding; conditions: read-out: % control
T28 construct: purchased DiscoveRx KINOMEscan

[33] = target: T29, VEGFR2 (Homo sapiens, UniProt P35968); experiment: KinomeScan; type: binding; conditions: read-out: % control
T29 construct: purchased DiscoveRx KINOMEscan

[34] = target: T30, RET(V804M) (Homo sapiens, UniProt P07949, V804M); experiment: KinomeScan; type: binding; conditions: read-out: % control
T30 construct: purchased DiscoveRx KINOMEscan

[35] = target: T31, EPHB4 (Homo sapiens, UniProt P54760); experiment: KinomeScan; type: binding; conditions: read-out: % control
T31 construct: purchased DiscoveRx KINOMEscan

[36] = target: T32, ALK (Homo sapiens, UniProt Q9UM73); experiment: KinomeScan; type: binding; conditions: read-out: % control
T32 construct: purchased DiscoveRx KINOMEscan
T32 sequence (Q9UM73 19-1620): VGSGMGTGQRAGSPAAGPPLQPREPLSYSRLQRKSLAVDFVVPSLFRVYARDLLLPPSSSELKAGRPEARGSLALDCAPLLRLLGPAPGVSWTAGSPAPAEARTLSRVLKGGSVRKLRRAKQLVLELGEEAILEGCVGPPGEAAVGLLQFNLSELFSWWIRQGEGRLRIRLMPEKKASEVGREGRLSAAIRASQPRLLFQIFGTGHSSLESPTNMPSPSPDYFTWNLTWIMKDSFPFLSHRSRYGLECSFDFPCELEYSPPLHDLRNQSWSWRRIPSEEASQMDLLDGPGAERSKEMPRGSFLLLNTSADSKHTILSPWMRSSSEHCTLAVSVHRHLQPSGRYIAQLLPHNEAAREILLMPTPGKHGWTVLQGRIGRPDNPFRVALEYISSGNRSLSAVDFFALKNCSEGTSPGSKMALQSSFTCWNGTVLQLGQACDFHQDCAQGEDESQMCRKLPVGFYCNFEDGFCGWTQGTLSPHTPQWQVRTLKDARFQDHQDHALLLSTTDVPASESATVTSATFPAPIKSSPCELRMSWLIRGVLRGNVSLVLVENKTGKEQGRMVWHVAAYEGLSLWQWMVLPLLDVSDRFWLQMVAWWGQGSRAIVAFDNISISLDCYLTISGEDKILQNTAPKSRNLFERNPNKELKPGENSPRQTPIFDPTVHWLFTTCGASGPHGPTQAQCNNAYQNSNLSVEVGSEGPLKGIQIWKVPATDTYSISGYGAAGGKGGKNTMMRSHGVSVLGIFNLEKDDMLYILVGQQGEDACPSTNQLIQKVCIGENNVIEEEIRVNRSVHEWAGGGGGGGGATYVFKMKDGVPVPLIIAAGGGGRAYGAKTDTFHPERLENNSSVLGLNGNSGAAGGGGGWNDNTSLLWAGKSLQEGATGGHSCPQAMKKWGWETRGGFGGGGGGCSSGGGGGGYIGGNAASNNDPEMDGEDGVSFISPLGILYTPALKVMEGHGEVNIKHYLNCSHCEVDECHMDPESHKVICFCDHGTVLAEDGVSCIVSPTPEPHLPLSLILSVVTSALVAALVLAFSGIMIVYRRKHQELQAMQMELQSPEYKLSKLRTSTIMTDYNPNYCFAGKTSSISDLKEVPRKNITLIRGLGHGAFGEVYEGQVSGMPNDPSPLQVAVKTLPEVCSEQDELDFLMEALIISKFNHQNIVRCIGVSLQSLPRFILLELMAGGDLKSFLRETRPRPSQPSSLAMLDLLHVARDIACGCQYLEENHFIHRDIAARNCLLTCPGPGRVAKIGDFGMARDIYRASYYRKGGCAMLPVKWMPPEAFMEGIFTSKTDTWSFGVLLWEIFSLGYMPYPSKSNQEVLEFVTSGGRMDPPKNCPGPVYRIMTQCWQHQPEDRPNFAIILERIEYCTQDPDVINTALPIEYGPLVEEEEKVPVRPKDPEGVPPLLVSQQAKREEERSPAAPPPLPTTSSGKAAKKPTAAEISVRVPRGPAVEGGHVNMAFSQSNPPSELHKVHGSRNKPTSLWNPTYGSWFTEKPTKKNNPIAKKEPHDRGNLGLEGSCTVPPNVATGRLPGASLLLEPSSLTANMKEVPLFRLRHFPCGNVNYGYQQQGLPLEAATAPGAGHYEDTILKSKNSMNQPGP

[37] = target: T33, ZAK (Homo sapiens, UniProt Q9NYL2); experiment: KinomeScan; type: binding; conditions: read-out: % control
T33 construct: purchased DiscoveRx KINOMEscan

[38] = target: T34, PRKCI (Homo sapiens, UniProt P41743); experiment: KinomeScan; type: binding; conditions: read-out: % control
T34 construct: purchased DiscoveRx KINOMEscan

[39] = rat, in vivo, po, P.O. (10mg/kg)

## C=CC(=O)N1CCC[C@@H](n2nc(-c3ccc(OCc4cccc(C)n4)c(Cl)c3)c3c(N)ncnc32)C1 [CHMFL-EGFR-26]
[1]
  remaining binding at 1 µM: 70%
[2]
  remaining binding at 1 µM: 89%
[3]
  remaining binding at 1 µM: 100%
[4]
  remaining binding at 1 µM: 56%
[5]
  remaining binding at 1 µM: 100%
[6]
  GI50: 0.34 µM
[7]
  remaining binding at 1 µM: 98%
[8]
  remaining binding at 1 µM: 100%
[9]
  remaining binding at 1 µM: 100%
[10]
  remaining binding at 1 µM: 85%
[11]
  remaining binding at 1 µM: 70%
[12]
  remaining binding at 1 µM: 100%
[13]
  remaining binding at 1 µM: 100%
[14]
  remaining binding at 1 µM: 100%
[15]
  remaining binding at 1 µM: 86%
[16]
  remaining binding at 1 µM: 100%
[17]; P.O. (10mg/kg)
  CLz: 42.2 ± 7.5 mL/min/kg
  Vz: 2.62 ± 0.14 L/kg
[17]; P.O. (10mg/kg), 10 mg/kg
  T1/2: 48 min
[17]; rat, in vivo, iv, 1 mg/kg, I.V (1mg/kg)
  half-life: 18.6 ± 4.92 min
[17]; rat, in vivo, iv, I.V (1mg/kg)
  AUC(0-inf): 1190 ± 143 ng·h/mL
  AUC(0-t): 1190 ± 142 ng·h/mL
  Cmax: 10600 ± 1650 ng/mL
  Tmax: 1.02 min
  MRT last: 10.8 ± 2.1 min
[17]; rat, in vivo, iv, I.V (1mg/kg), read-out: CLz (converted)
  clearance: 14.2 mL/min/kg
[17]; rat, in vivo, iv, I.V (1mg/kg), read-out: Vz
  Vd: 0.38 ± 0.13 L/kg
[17]; rat, in vivo, po, 10 mg/kg, P.O. (10mg/kg)
  half-life: 44.4 ± 9 min
[17]; [39]
  AUC(0-inf): 4040 ± 717 ng·h/mL
  AUC(0-t): 4040 ± 716 ng·h/mL
  Cmax: 5210 ± 859 ng/mL
  Tmax: 19.8 ± 8.4 min
  MRT last: 43.2 ± 4.14 min
[17]; rat, in vivo, po, P.O. (10mg/kg), read-out: F% (bioavailability)
  bioavailability: 33.8%
[18]
  remaining binding at 1 µM: 100%
[19]
  remaining binding at 1 µM: 100%
[20]
  remaining binding at 1 µM: 92%
[21]
  remaining binding at 1 µM: 100%
[22]
  remaining binding at 1 µM: 85%
[23]
  remaining binding at 1 µM: 98%
[24]
  remaining binding at 1 µM: 100%
[25]
  GI50: 3.2 µM
[26]
  remaining binding at 1 µM: 85%
[27]
  GI50: < 0.0003 µM
[28]
  remaining binding at 1 µM: 90%
[29]
  remaining binding at 1 µM: 0%
[30]
  remaining binding at 1 µM: 100%
[31]
  remaining binding at 1 µM: 92%
[32]
  remaining binding at 1 µM: 97%
[33]
  remaining binding at 1 µM: 100%
[34]
  remaining binding at 1 µM: 93%
[35]
  remaining binding at 1 µM: 100%
[36]
  remaining binding at 1 µM: 100%
[37]
  remaining binding at 1 µM: 100%
[38]
  remaining binding at 1 µM: 100%
